# Legend:
# [1] = biological target: T1, HSV-1 protease (Human herpesvirus 1, UniProt P10210); test: Enzymatic assay for HSV-1 protease (assembly) inhibitor, fluorescence polarization; type: biochemical; conditions: read-out: HSV-1 Enzyme inhibition IC50
# T1 construct: 6xHis (N); made in house; host or cells: baculovirus expression system
# Method in brief: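 His6-tagged HSV-1 UL26 protease, baculovirus-expressed, preincubated 30 min at RT with compound in 1 M citrate/phosphate buffer pH 7.4 with 20% glycerol and 2 mM TCEP. A biotin-HTYLQA*SERFRIK-DTAF substrate was then cleaved for 60 min at RT, stopped with avidin, and read by fluorescence polarization versus no-inhibitor control.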
# [2] = tested on: HSV-1; test: Antiviral activity, HSV-1 in Vero cells, plaque method; type: cell-based; conditions: Human alphaherpesvirus 1, 20 hours, 90% inhibition of plaque formation
# Method in brief: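 HSV-1 (50,000 pfu in 2% FBS-DMEM) was added to Vero cells and removed, then the compound was applied in 2% FBS-DMEM for 20 h at 37° C, 5% CO2. After a freeze-thaw, virus yield in the medium was titred by plaque assay. EC90 is the concentration giving 90% plaque reduction versus the compound-free control.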
# [3] = tested on: Vero cells; test: Cytotoxicity, Vero cells, Alamar Blue; type: cell-based; conditions: 25 μM, 20 hours
# Method in brief: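 Overnight-seeded Vero cells were exposed to 25 μM compound in 2% FBS-DMEM for 20 h at 37 °C, 5% CO2. Alamar Blue was then added for about 6 h. The absorbance ratio relative to compound-free control gave the living-cell ratio.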
# T1 sequence (P10210 1-247): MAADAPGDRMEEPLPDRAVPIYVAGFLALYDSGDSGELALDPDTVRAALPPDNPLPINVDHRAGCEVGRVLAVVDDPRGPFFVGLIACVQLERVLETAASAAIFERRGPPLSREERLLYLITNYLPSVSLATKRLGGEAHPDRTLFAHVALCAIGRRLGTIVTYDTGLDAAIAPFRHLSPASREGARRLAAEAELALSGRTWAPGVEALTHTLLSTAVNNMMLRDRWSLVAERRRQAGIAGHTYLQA
Structure (SMILES),IC50 [1],EC90 [2],Cell viability (% of control) [3]
"CCCCCc1ccc(C(=O)Nc2ccc3nc(NC(C)(C)C(=O)N(C)CCc4ccccn4)oc(=O)c3c2C)cc1 [Compound No.185, N-(5-Methyl-2-{1-methyl-1-[methyl-(2-pyridin-2-yl-ethyl)-carbamoyl]-ethylamino}-4-oxo-4H-benzo[d][1,3]oxazin-6-yl)-4-pentyl-benzamide]",7 µM,3.5 µM,29.0%
"COc1ccccc1C(=O)Nc1ccc2nc(NC(C)(C)C(=O)N(C)CCc3ccccn3)oc(=O)c2c1C [Compound No.161, 2-Methoxy-N-(5-methyl-2-{1-methyl-1-[methyl-(2-pyridin-2-yl-ethyl)-carbamoyl]-ethylamino}-4-oxo-4H-benzo[d][1,3]oxazin-6-yl)-benzamide]",2.8 µM,11.4 µM,44.1%
"Cc1cccc(C(=O)Nc2ccc3nc(NC(C)(C)C(=O)N(C)CCc4ccccn4)oc(=O)c3c2C)c1 [compound 157, 3-Methyl-N-(5-methyl-2-{1-methyl-1-[methyl-(2-pyridin-2-yl-ethyl)-carbamoyl]-ethylamino}-4-oxo-4H-benzo[d][1,3]oxazin-6-yl)-benzamide]",3.3 µM,6.2 µM,70.5%
"Cc1c(NC(=O)c2ccc(C(C)(C)C)cc2)ccc2nc(NC(C)(C)C(=O)N(C)CCc3ccccn3)oc(=O)c12 [Compound No.168, 4-tert-Butyl-N-(5-methyl-2-{1-methyl-1-[methyl-(2-pyridin-2-yl-ethyl)-carbamoyl]-ethylamino}-4-oxo-4H-benzo[d][1,3]oxazin-6-yl)-benzamide]",1.3 µM,3.6 µM,16.8%
"Cc1c(NC(=O)OC(C)(C)C)ccc2nc(N[C@@H](CCc3ccccc3)C(=O)NCCc3ccccn3)oc(=O)c12 [Compound No.42, {5-Methyl-4-oxo-2-[3-phenyl-1S-(2-pyridin-2-yl-ethylcarbamoyl)-propylamino]-4H-benzo[d][1,3]oxazin-6-yl}-carbamic acid tert-butyl ester]",1 µM,10.7 µM,83.0%
"Cc1c(NC(=O)OC(C)(C)C)ccc2nc(N3C[C@H](OCc4ccccc4)C[C@H]3C(=O)N(C)CCc3cccnc3)oc(=O)c12 [Compound No.115, (2-{4R-Benzyloxy-2S-[methyl-(2-pyridin-3-yl-ethyl)-carbamoyl]-pyrrolidin-1-yl}-5-methyl-4-oxo-4H-benzo[d][1,3]oxazin-6-yl)-carbamic acid tert-butyl ester]",> 20 µM,6.1 µM,71.4%
"Cc1c(NC(=O)c2ccccc2[N+](=O)[O-])ccc2nc(NC(C)(C)C(=O)N(C)CCc3ccccn3)oc(=O)c12 [Compound No.140, N-(5-Methyl-2-{1-methyl-1-[methyl-(2-pyridin-2-yl-ethyl)-carbamoyl]-ethylamino}-4-oxo-4H-benzo[d][1,3]oxazin-6-yl)-2-nitro-benzamide]",4.2 µM,> 12.5 µM,96.8%
"Cc1c(NC(=O)c2cccc(F)c2)ccc2nc(NC(C)(C)C(=O)N(C)CCc3ccccn3)oc(=O)c12 [Compound No.148, 3-Fluoro-N-(5-methyl-2-{1-methyl-1-[methyl-(2-pyridin-2-yl-ethyl)-carbamoyl]-ethylamino}-4-oxo-4H-benzo[d][1,3]oxazin-6-yl)-benzamide]",1.5 µM,10.3 µM,54.6%
"Cc1c(NC(=O)c2cccc(CCl)c2)ccc2nc(NC(C)(C)C(=O)N(C)CCc3ccccn3)oc(=O)c12 [Compound No.170, 3-Chloromethyl-N-(5-methyl-2-{1-methyl-1-[methyl-(2-pyridin-2-yl-ethyl)-carbamoyl]-ethylamino}-4-oxo-4H-benzo [d][1,3]oxazin-6-yl)-benzamide]",1.5 µM,7.8 µM,13.6%

# Further lines, with some results ahead:
IC50 [1],EC90 [2],Structure (SMILES),Cell viability (% of control) [3]
1.5 µM,12.4 µM,"Cc1c(NC(=O)OC(C)(C)C)ccc2nc(N[C@@H](CCc3ccccc3)C(=O)NCc3ccccn3)oc(=O)c12 [Compound No.39, (5-Methyl-4-oxo-2-{3-phenyl-1S-[(pyridin-2-ylmethyl)-carbamoyl]-propylamino}-4H-benzo[d][1,3]oxazin-6-yl)-carbamic acid tert-butyl ester]",90.1%
1.1 µM,> 12.5 µM,"Cc1c(NC(=O)OC(C)(C)C)ccc2nc(N(C)[C@@H](C)C(=O)NCc3cccnc3)oc(=O)c12 [Compound No.72, [5-Methyl-2-(methyl-{1S-[(pyridin-3-ylmethyl)-carbamoyl]-ethyl}-amino)-4-oxo-4H-benzo[d][1,3]oxazin-6-yl]-carbamic acid tert-butyl ester]",90.7%
26.9 µM,4.7 µM,"Cc1c(NC(=O)OC(C)(C)C)ccc2nc(N[C@H](C(=O)N(C)Cc3ccccn3)C(C)(C)C)oc(=O)c12 [Compound No.60, {2-[2,2-Dimethyl-1S-(methyl-pyridin-2-ylmethyl-carbamoyl)-propylamino]-5-methyl-4-oxo-4H-benzo[d][1,3]oxazin-6-yl}-carbamic acid tert-butyl ester]",89.6%
1.7 µM,< 3.2 µM,"Cc1c(NC(=O)OC(C)(C)C)ccc2nc(N[C@@H](Cc3ccccc3)C(=O)N(C)Cc3ccccn3)oc(=O)c12 [Compound No.57, {5-Methyl-2-[1S-(methyl-pyridin-2-ylmethyl-carbamoyl)-2-phenyl-ethylamino]-4-oxo-4H-benzo[d][1,3]oxazin-6-yl}-carbamic acid tert-butyl ester]",71.3%
5.6 µM,> 25 µM,"Cc1c(NC(=O)OC(C)(C)C)ccc2nc(N[C@@H](CCc3ccccc3)C(=O)NCc3ccncc3)oc(=O)c12 [Compound No.41, (5-Methyl-4-oxo-2-{3-phenyl-1S-[(pyridin-4-ylmethyl)-carbamoyl]-propylamino}-4H-benzo[d][1,3]oxazin-6-yl)-carbamic acid tert-butyl ester]",101.0%
0.9 µM,< 3.2 µM,"Cc1c(NC(=O)OC(C)(C)C)ccc2nc(N[C@@H](C)C(=O)N(C)CCc3ccncc3)oc(=O)c12 [Compound No.50, (5-Methyl-2-{1S-[methyl-(2-pyridin-4-yl-ethyl)-carbamoyl]-ethylamino}-4-oxo-4H-benzo[d][1,3]oxazin-6-yl)-carbamic acid tert-butyl ester]",106.0%
0.7 µM,23.8 µM,"Cc1c(NC(=O)OC(C)(C)C)ccc2nc(N[C@@H](Cc3ccccc3)C(=O)NCc3cccnc3)oc(=O)c12 [Compound No.30, (5-Methyl-4-oxo-2-{2-phenyl-1S-[(pyridin-3-ylmethyl)-carbamoyl]-ethylamino}-4H-benzo[d][1,3]oxazin-6-yl)-carbamic acid tert-butyl ester]",98.6%
> 10 µM,6.5 µM,"Cc1c(NC(=O)OC(C)(C)C)ccc2nc(N3C[C@H](OCc4ccccc4)C[C@H]3C(=O)N(C)CCc3ccncc3)oc(=O)c12 [Compound No.116, (2-{4R-Benzyloxy-2S-[methyl-(2-pyridin-4-yl-ethyl)-carbamoyl]-pyrrolidin-1-yl}-5-methyl-4-oxo-4H-benzo[d][1,3]oxazin-6-yl)-carbamic acid tert-butyl ester]",68.2%
2 µM,6.1 µM,"Cc1c(NC(=O)OC(C)(C)C)ccc2nc(N[C@@H](CC(C)C)C(=O)N(C)CCc3cccnc3)oc(=O)c12 [Compound No.68, (5-Methyl-2-{3-methyl-1S-[methyl-(2-pyridin-3-yl-ethyl)-carbamoyl]-butylamino}-4-oxo-4H-benzo[d][1,3]oxazin-6-yl)-carbamic acid tert-butyl ester]",66.9%
1 µM,> 12.5 µM,"Cc1c(NC(=O)OC(C)(C)C)ccc2nc(N(C)[C@@H](C)C(=O)NCc3ccncc3)oc(=O)c12 [Compound No.73, [5-Methyl-2-(methyl-{1S-[(pyridin-4-ylmethyl)-carbamoyl]-ethyl}-amino)-4-oxo-4H-benzo[d][1,3]oxazin-6-yl]-carbamic acid tert-butyl ester]",79.8%
8.7 µM,> 25 µM,"Cc1c(NC(=O)OC(C)(C)C)ccc2nc(N[C@@H](CC3CCCCC3)C(=O)NCc3cccnc3)oc(=O)c12 [Compound No.27, (2-{2-Cyclohexyl-1S-[(pyridin-3-ylmethyl)-carbamoyl]-ethylamino}-5-methyl-4-oxo-4H-benzo[d][1,3]oxazin-6-yl)-carbamic acid tert-butyl ester]",103.0%
2.1 µM,> 12.5 µM,"Cc1c(NC(=O)OC(C)(C)C)ccc2nc(N(C)[C@@H](C)C(=O)N(C)CCc3ccccn3)oc(=O)c12 [Compound No.76, [5-Methyl-2-(methyl-{1S-[methyl-(2-pyridin-2-yl-ethyl)-carbamoyl]-ethyl}-amino)-4-oxo-4H-benzo[d][1,3]oxazin-6-yl]-carbamic acid tert-butyl ester]",87.9%
